From BindingDB's records for doi:10.7270/Q2PK0DK8 (Nmmlsc, 2009)

What follows are molecules tested against Ras-related C3 botulinum toxin substrate 1 (Mus musculus, UniProt P63001) (assay: wildtype Rac1 GTP binding inhibitors, SAR follow-up, biochemical, oxadiazole analogs, multiplex bead flow cytometry (AID 2027)). Conditions: not given.
In the case of `COc1cccc(-c2noc(CCC(=O)N3CCN(c4cc(C)ccc4C)CC3)n2)c1`, the EC50 is reported as 6120 nM.
`Cc1ccc(C)c(N2CCN(C(=O)CCc3nc(-c4ccccc4C)no3)CC2)c1` was tested, and the EC50 was 1730 nM.
With `COc1ccc(-c2noc(CCC(=O)N3CCN(c4cccc(Cl)c4)CC3)n2)cc1` the EC50 was > 30000 nM.
With `Cc1ccc(C)c(N2CCN(C(=O)CCc3nc(-c4ccccc4C(F)(F)F)no3)CC2)c1` the EC50 was 2110 nM.
Molecule `COc1ccc(-c2noc(CCC(=O)N3CCN(c4ccccc4C)CC3)n2)cc1` has an EC50 of 1350 nM.
`COc1ccc(-c2ccc(CCC(=O)N3CCN(c4cc(C)ccc4C)CC3)s2)cc1` was tested, and the EC50 was > 30000 nM.
Work on `COc1ccc(-c2noc(CCC(=O)N3CCN(c4cccc(C)c4C)CC3)n2)cc1` [1-[4-(2,3-dimethylphenyl)-1-piperazinyl]-3-[3-(4-methoxyphenyl)-1,2,4-oxadiazol-5-yl]-1-propanone] yielded an EC50 of 1310 nM.
Work on `COc1ccc(-c2noc(CCC(=O)N3CCN(c4cc(C)ccc4C)CC3)n2)cc1` [1-[4-(2,5-dimethylphenyl)-1-piperazinyl]-3-[3-(4-methoxyphenyl)-1,2,4-oxadiazol-5-yl]-1-propanone] yielded an EC50 of 5080 nM.
`Cc1ccc(-c2noc(CCC(=O)N3CCN(c4cc(C)ccc4C)CC3)n2)cc1` [1-[4-(2,5-dimethylphenyl)-1-piperazinyl]-3-[3-(4-methylphenyl)-1,2,4-oxadiazol-5-yl]-1-propanone] showed an EC50 of 3200 nM.
With `Cc1ccc(C)c(N2CCN(C(=O)CCc3nc(-c4ccc(C(F)(F)F)cc4)no3)CC2)c1` [1-[4-(2,5-dimethylphenyl)-1-piperazinyl]-3-[3-[4-(trifluoromethyl)phenyl]-1,2,4-oxadiazol-5-yl]-1-propanone] the EC50 was 2190 nM.
With `COc1ccc(-c2noc(CCCCC(=O)N3CCN(c4cc(C)ccc4C)CC3)n2)cc1` [1-[4-(2,5-dimethylphenyl)-1-piperazinyl]-5-[3-(4-methoxyphenyl)-1,2,4-oxadiazol-5-yl]-1-pentanone] the EC50 was 21000 nM.
`Cc1cccc(-c2noc(CCC(=O)N3CCN(c4cc(C)ccc4C)CC3)n2)c1` [1-[4-(2,5-dimethylphenyl)piperazin-1-yl]-3-[3-(3-methylphenyl)-1,2,4-oxadiazol-5-yl]propan-1-one] showed an EC50 of 1220 nM.
In the case of `COc1ccc(-c2cc(CCC(=O)N3CCN(c4cc(C)ccc4C)CC3)on2)cc1` [1-[4-(2,5-dimethylphenyl)piperazin-1-yl]-3-[3-(4-methoxyphenyl)-1,2-oxazol-5-yl]propan-1-one], the EC50 is reported as > 30000 nM.
Molecule `COc1ccc(-c2coc(CCC(=O)N3CCN(c4cc(C)ccc4C)CC3)n2)cc1` [1-[4-(2,5-dimethylphenyl)piperazin-1-yl]-3-[4-(4-methoxyphenyl)-1,3-oxazol-2-yl]propan-1-one] has an EC50 of 2200 nM.
`COc1ccc(-c2ccc(CCC(=O)N3CCN(c4cc(C)ccc4C)CC3)[nH]2)cc1` [1-[4-(2,5-dimethylphenyl)piperazin-1-yl]-3-[5-(4-methoxyphenyl)-1H-pyrrol-2-yl]propan-1-one] was tested, and the EC50 was > 30000 nM.
`COc1ccc(-c2noc(CCC(=O)N3CCN(c4ccccc4Cl)CC3)n2)cc1` [1-[4-(2-chlorophenyl)piperazin-1-yl]-3-[3-(4-methoxyphenyl)-1,2,4-oxadiazol-5-yl]propan-1-one] gave an EC50 of 3340 nM.
`COc1ccc(-c2noc(CCC(=O)N3CCN(c4ccccc4F)CC3)n2)cc1` [1-[4-(2-fluorophenyl)piperazin-1-yl]-3-[3-(4-methoxyphenyl)-1,2,4-oxadiazol-5-yl]propan-1-one] was tested, and the EC50 was 1110 nM.
With `COc1ccc(-c2noc(CCC(=O)N3CCN(c4cccc(Br)c4)CC3)n2)cc1` [1-[4-(3-bromophenyl)-1-piperazinyl]-3-[3-(4-methoxyphenyl)-1,2,4-oxadiazol-5-yl]-1-propanone] the EC50 was > 30000 nM.
In the case of `COc1ccc(-c2noc(CCC(=O)N3CCN(c4cccc(F)c4)CC3)n2)cc1` [1-[4-(3-fluorophenyl)piperazin-1-yl]-3-[3-(4-methoxyphenyl)-1,2,4-oxadiazol-5-yl]propan-1-one], the EC50 is reported as > 30000 nM.
In the case of `COc1ccc(-c2noc(CCC(=O)N3CCN(c4cccc(C(F)(F)F)c4)CC3)n2)cc1` [1-{3-[3-(4-methoxyphenyl)-1,2,4-oxadiazol-5-yl]propanoyl}-4-[3-(trifluoromethyl)phenyl]piperazine], the EC50 is reported as > 30000 nM.
`Cc1ccc(C)c(N2CCN(C(=O)CCc3nc(-c4ccccc4Br)no3)CC2)c1` [3-[3-(2-bromophenyl)-1,2,4-oxadiazol-5-yl]-1-[4-(2,5-dimethylphenyl)-1-piperazinyl]-1-propanone] gave an EC50 of 1710 nM.
Molecule `Cc1ccc(C)c(N2CCN(C(=O)CCc3nc(-c4ccccc4Cl)no3)CC2)c1` [3-[3-(2-chlorophenyl)-1,2,4-oxadiazol-5-yl]-1-[4-(2,5-dimethylphenyl)-1-piperazinyl]-1-propanone] has an EC50 of 1190 nM.
`COc1ccc(-c2noc(CCC(=O)N3CCN(c4ccccc4)CC3)n2)cc1` [3-[3-(4-methoxyphenyl)-1,2,4-oxadiazol-5-yl]-1-(4-phenylpiperazin-1-yl)propan-1-one] was tested, and the EC50 was > 30000 nM.
With `COc1ccc(-c2noc(CCC(=O)N3CCN(c4ccc(C(F)(F)F)cc4)CC3)n2)cc1` [3-[3-(4-methoxyphenyl)-1,2,4-oxadiazol-5-yl]-1-[4-[4-(trifluoromethyl)phenyl]piperazin-1-yl]propan-1-one] the EC50 was > 30000 nM.
For `COc1ccc(-c2noc(CCC(=O)N3CCN(c4cccc(OC)c4)CC3)n2)cc1` [KUC103349N], the EC50 was > 30000 nM.
With `COc1ccc(-c2noc(CCCC(=O)N3CCN(c4cc(C)ccc4C)CC3)n2)cc1` [KUC103353N] the EC50 was 3790 nM.
`Cc1ccc(C)c(N2CCN(C(=O)CCc3nc(-c4ccc(F)cc4)no3)CC2)c1` [KUC103364N] gave an EC50 of 1270 nM.
Molecule `Cc1ccc(C)c(N2CCN(C(=O)CCc3nc(-c4cccc(F)c4)no3)CC2)c1` [KUC103366N] has an EC50 of 1480 nM.
`Cc1ccc(C)c(N2CCN(C(=O)CCc3nc(-c4cccc(Br)c4)no3)CC2)c1` [KUC103367N] gave an EC50 of 1670 nM.
Molecule `COc1ccc(-c2noc(CCC(=O)N3CCN(c4ccccc4Br)CC3)n2)cc1` [KUC103370N] has an EC50 of 1700 nM.
Work on `Cc1ccc(C)c(N2CCN(C(=O)CCc3nc(-c4cccc(C(F)(F)F)c4)no3)CC2)c1` [KUC103380N] yielded an EC50 of 2500 nM.
For `Cc1ccc(C)c(N2CCN(C(=O)CCc3nc(-c4ccccc4F)no3)CC2)c1` [KUC103401N], the EC50 was 1820 nM.
`Cc1ccc(C)c(N2CCN(C(=O)CCc3nc(-c4ccc(N(C)C)cc4)no3)CC2)c1` [KUC103409N] showed an EC50 of 2770 nM.
`COc1ccc(-c2noc(CCC(=O)N3CCC(c4cc(C)ccc4C)CC3)n2)cc1` [KUC103432N] gave an EC50 of 1220 nM.
For `COc1ccc(-c2ccc(CCC(=O)N3CCN(c4cc(C)ccc4C)CC3)o2)cc1` [KUC103447N], the EC50 was > 30000 nM.
`Cc1ccc(C)c(N2CCN(C(=O)CCc3nc(-c4ccc(Br)cc4)no3)CC2)c1` [UNM-0000306072] gave an EC50 of 2970 nM.
`COc1ccc(-c2noc(CCC(=O)N3CCN(c4ccccc4C(F)(F)F)CC3)n2)cc1` [UNM-0000306082] was tested, and the EC50 was 1690 nM.
Molecule `Cc1ccc(C)c(N2CCN(C(=O)CCc3nc(-c4ccc(Cl)cc4)no3)CC2)c1` [UNM-0000306083] has an EC50 of 1830 nM.
Molecule `Cc1ccc(C)c(N2CCN(C(=O)CCc3nc(-c4cccc(Cl)c4)no3)CC2)c1` [UNM-0000306086] has an EC50 of 4970 nM.
With `COc1ccc(-c2noc(CCC(=O)N3CCN(c4ccc(Cl)cc4)CC3)n2)cc1` [UNM-0000306121] the EC50 was > 30000 nM.
For `COc1ccc(-c2noc(CCC(=O)N3CCN(c4cccc(C)c4)CC3)n2)cc1` [UNM-0000306125], the EC50 was > 30000 nM.
In the case of `COc1ccc(-c2cccc(CCC(=O)N3CCN(c4cc(C)ccc4C)CC3)c2)cc1` [UNM-0000306127], the EC50 is reported as > 30000 nM.
`COc1ccc(-c2cc(CCC(=O)N3CCN(c4cc(C)ccc4C)CC3)[nH]n2)cc1` [UNM-0000306150] was tested, and the EC50 was > 30000 nM.

Same assay, conditions: inactive by the depositor's call
`COc1ccc(-c2noc(CC(=O)N3CCN(c4cc(C)ccc4C)CC3)n2)cc1` [1-[4-(2,5-dimethylphenyl)piperazin-1-yl]-2-[3-(4-methoxyphenyl)-1,2,4-oxadiazol-5-yl]ethanone] was tested, and the EC50 was 7520 nM.
For `COc1ccc(-c2noc(CCC(=O)N3CCN(c4ccc(Br)cc4)CC3)n2)cc1` [1-[4-(4-bromophenyl)piperazin-1-yl]-3-[3-(4-methoxyphenyl)-1,2,4-oxadiazol-5-yl]propan-1-one], the EC50 was 257 nM.
Molecule `COc1ccc(-c2noc(CCC(=O)N3CCN(c4ccccc4OC)CC3)n2)cc1` [3-[3-(4-methoxyphenyl)-1,2,4-oxadiazol-5-yl]-1-[4-(2-methoxyphenyl)-1-piperazinyl]-1-propanone] has an EC50 of 2290 nM.
Work on `COc1ccc(-c2noc(CCC(=O)N3CCN(c4ccc(OC)cc4)CC3)n2)cc1` [3-[3-(4-methoxyphenyl)-1,2,4-oxadiazol-5-yl]-1-[4-(4-methoxyphenyl)piperazin-1-yl]propan-1-one] yielded an EC50 of 527 nM.
In the case of `COc1ccc(-c2noc(CCC(=O)N3CCN(c4ccc(C)cc4)CC3)n2)cc1` [3-[3-(4-methoxyphenyl)-1,2,4-oxadiazol-5-yl]-1-[4-(4-methylphenyl)piperazin-1-yl]propan-1-one], the EC50 is reported as 2690 nM.
`COc1ccc(-c2noc(CCC(=O)N3CCN(c4ccc(F)cc4)CC3)n2)cc1` [KUC103398N] gave an EC50 of 1590 nM.
`Cc1ccc(C)c(N2CCN(C(=O)CCc3nc(-c4ccccc4)no3)CC2)c1` [UNM-0000306070] gave an EC50 of 1640 nM.
`COc1ccccc1-c1noc(CCC(=O)N2CCN(c3cc(C)ccc3C)CC2)n1` [UNM-0000306071] gave an EC50 of 15100 nM.
